Test results from patent US20120309753A1, “METHOD OF DISSOLVING ANTIFUNGAL AGENT, AND COMPOSITIONS WITH A HIGH CONCENTRATION OF ANTIFUNGAL AGENT, SUITABLE FOR APPLICATION TO THE NAIL” (GALDERMA RESEARCH & DEVELOPMENT, priority 2009, published 2012).
Structures can show the parent of a compound that is named as a salt. Where two headings read alike, the source gives them in different places.

How the values were obtained:
[1] = Visual solubility of terbinafine HCl in solvent systems (Method 1); type: physicochemical
Experimental: Terbinafine HCl is weighed out accurately into a 20 ml flask and then the solvents are added. The flask is subsequently placed, with magnetic stirring, in a chamber thermostated at 20° C., for 16 h. If some of the active ingredient has not dissolved, a further addition of solvent is made. The flask is then placed again, with magnetic stirring, in the thermostated chamber, for 16 h, until dissolution is complete. If this is not so, the preceding step is repeated.

[2] = Experimental: Different solubility tests on terbinafine HCl were carried out in different solvent systems. The solubility was both estimated visually by Method 1 below, then quantified by HPLC assay by Method 2 below.
Weigh out precisely approximately 15 mg of terbinafine HCl into a 50 ml volumetric flask. Dissolve in the diluent and make up to the volume with the same solvent. Prepare the solution in duplicate (A1, A2)
Dilute solution A to 1/5 in the diluent. Dilution
The standard range is produced by varying the injection volume of solution A, at an equivalent concentration of 4 μg/ml to 120 μg/ml.
2 tests per sample are prepared, of concentrations from 40 μg/ml to 100 μg/ml.
• Column: Sun Fire C18 4.6×100 mm 3.5 μm, fitted with a precolumn. • Column temperature: 30° C. • Flow rate: 1.5 ml/min • Injected volume: 30 μl for the sample solutions • Analysis time: 10 min • Detection at: 285 nm • Gradient:
• Inject a blank sample (diluent) and check that no peak of the blank sample interferes with the terbinafine HCl. • Inject solutions STD1 and STD2 and check that the % deviation between the 2 controls is <2%.

Trichophyton rubrum = settings: oral route, 250 mg/day for 6 months; cited from earlier work

SMILES | visual solubility ([1]; 15% water, 70% ethanol, 15% propylene glycol) [% w/w] | visual solubility ([1]; 15% water, 70% propylene glycol, 15% ethanol) [% w/w] | visual solubility ([1]; 30% water, 35% propylene glycol, 35% ethanol) [% w/w] | visual solubility ([1]; 33% water, 33% propylene glycol, 33% ethanol) [% w/w] | visual solubility ([1]; 50/50 ethanol/propylene glycol mixture, 20° C.) [% w/w] | visual solubility ([1]; binary water/ethanol mixture (50/50), 20° C.) [% w/w] | visual solubility ([1]; binary water/propylene glycol mixture (50/50), 20° C.) [% w/w] | visual solubility ([1]; in ethanol, 20° C.) [% w/w] | visual solubility ([1]; in propylene glycol, 20° C.) [% w/w] | visual solubility ([1]; in water, 20° C.) [% w/w] | solubility ([1]; ternary water/propylene glycol/ethanol mixture containing at least 30% of water (Graph 1)) | solubility by HPLC assay ([2]; 50/50 ethanol/propylene glycol mixture) [% w/w] | expected solubility by additive effect ([2]; ethanol/propylene glycol binary mixture, expected from the single solvents) [%] | solubility by HPLC assay ([2]; in ethanol) [% w/w] | solubility by HPLC assay ([2]; in propylene glycol) [% w/w] | solubility ([1]; ternary mixture with 40% of water, amount of ethanol greater than or equal to that of propylene glycol) | efficacy in the treatment of onychomycoses due to Trichophyton rubrum (Trichophyton rubrum)
CN(C/C=C/C#CC(C)(C)C)Cc1cccc2ccccc12 [terbinafine HCl, terbinafine hydrochloride] | 25.2 | 25.0 | 18.5 | 15.5 | 23.3 | 16.7 | 2.2 | 19.7 | 8.9 | 0.6 | greater than 10% | 20.4 | ~14 | 18.09 | 10.3 | – | –
CN(C/C=C/C#CC(C)(C)C)Cc1cccc2ccccc12 [terbinafine] | – | – | – | – | – | – | – | – | – | – | – | – | – | – | – | greater than 10% | effective
